Source: US12036224B2, “Formulations, methods, kits, and dosage forms for treating atopic dermatitis and for improved stability of an active pharmaceutical ingredient” (Libertas Bio, Inc., priority 2017, dated 2024)
“Also recorded” adds a separate entry of the source.

Experiments:
HCl stress study = assay type: physicochemical
Excerpt: Analytical studies for 2-(1-(4-((4-(4-hydroxypiperidin-1-yl)phenyl)amino)-5-oxo-5,6-dihydropyrimido[4,5-d]pyridazin-2-yl)piperidin-4-yl)acetonitrile are provided below in Tables 1-3: Table 1 provides the results of an HCl pH dependent solubility profile study, Table 2 provides the results of an HCl solubility profile in organic solvents, and Table 3 provides the results of an HCl stress study.

[1] = Phase 1b study in atopic dermatitis: pharmacokinetics; assay type: in vivo, human
Description: (§1) Upon signing the informed consent, the each subject underwent screening assessments from Day −30 to Day −1 prior to study drug administration. On Day 1 (baseline), eligible subjects were randomized, subjected to the Day 1/baseline assessments and received Compound 1 at 20, 40 or 80 mg or placebo, dependent on cohort and randomization schedule. At this visit, PK/PD samples were collected at predose and up to 8 hours (or up to 12 hours at selected sites). Subjects were monitored in clinic for 2 hours following the first study drug administration. Subjects returned to the clinic on Day 2 for PK and PD samples (24 hours post dose).
(§2) Pre-dose PK and PD samples were collected on Days 8 and 29 (last day of treatment). On Day 15, PK/PD samples were also collected at pre-dose and up to 8 hours post-dose and subjects returned on Day 16 for PK and PD samples (24 hours post dose). Subjects came in for additional safety assessments on Days 8, 22 and 29, as well as at the end of the follow up period (Day 43). Disease assessments were conducted on Days 1, Day 15 and Day 29.
Assessment of PK variables: The following PK parameters for Compound 1 were derived from the concentration-time data of Compound 1 after the first and Day 15 dose administration in the fasted state, as data allowed: Cmax, tmax, AUC0-∞, AUC0-t, AUC0-24, λz, t1/2, CL/F and Vd/F

[2] = test system: subjects with moderate-to severe atopic dermatitis; assay: Phase 1b study in atopic dermatitis: efficacy (EASI, IGA, pruritus NRS); assay type: in vivo, human; details: for EASI50 / EASI75: once daily, after 4 weeks; for average decrease in EASI / average decrease in Pruritis (Itch) Numeric Rating Scale (NRS): week 4
Description: The study conducted was a randomized, double-blind, placebo-controlled, multicenter, sequential dose escalation study in subjects with moderate-to severe atopic dermatitis. The study included a screening period (up to 30 days) and a treatment period for 4 weeks with a 14 day follow up period that concluded with an end-of-study visit. Three sequential cohorts of 20, 40 and 80 mg QD were evaluated. At each dose level a total of 12 subjects were enrolled with 9 subjects receiving Compound 1, and 3 subjects receiving matching placebos.
as §1, §2
Compound 1 was administered orally at doses of 20, 40 and 80 mg qd. Compound 1 was made available in 5-mg, 20-mg, and 50-mg strength tablets.
Assessment of efficacy variables: Preliminary efficacy was assessed by changes in the following assessments between Day 1 (baseline) and Days 15 and 29: IGA, EASI, 5-D Pruritus scale, Pruritus Numeric Rating Scale, % BSA involvement of AD, and skin microbiome analysis
The IGA is an assessment scale used in clinical studies to determine severity of AD and clinical response to treatment based on a 5-point scale ranging from 0 (clear) to 4 (severe) (18). The IGA score was assessed at screening, day 1/baseline (pre-dose), and days 15, 29, 43 or early termination.
The Pruritus NRS is a single-question assessment tool that is used to assess the patient's worst itch as a result of AD in the […]. Subjects complete the patient recorded outcome once daily. Patient compliance on the pruritus NRS is followed at each clinic visit. Subjects were instructed on daily reporting at the Baseline visit and are queried for compliance at every clinic visit. Subjects completed the rating scale daily through the last study visit using the scale provided below.
The Eczema Area and Severity Index (EASI) is a validated measure used in clinical practice and clinical trials to assess the severity and extent of AD. Four AD disease characteristics are assessed for severity by the investigator or designee on a scale of “0” (None) through “3” (severe). In addition, the area of AD involvement is assessed as a percentage by body area of head, trunk, upper and lower extremities and converted to a score of 0 to 6. Subjects were subjected to this assessment at the following visits: screening, day 1/baseline (pre-dose), and days 15, 29, 43 or early termination.
Methods: Patients were randomized 1:3 placebo or Compound 1 at 20, 40 or 80 mg once daily for 4 weeks (n=36). Inclusion criteria were Eczema Area and Severity Index (EASI) ≥16, body surface area (BSA) involvement ≥10% and an Investigator's Global Assessment (IGA) of ≥3 at baseline visit. Study objectives included safety/tolerability, efficacy and pharmacokinetic measurements. No concomitant administration of topical corticosteroids or other immunosuppressants was permitted during or prior to study.

[3] = Phase 1/2 trial in solid tumors and hematologic malignancies: pharmacokinetics; assay type: in vivo, human
Description: Methods: Phase 1/2 clinical trial in patients with solid tumors and hematologic malignancies evaluates escalating oral doses of the formulation disclosed herein at 10, 20, 30, 40, 50, 75 and 100 mg BID and 80 and 120 mg QD mg (NCT02440685). Phase 1 allows patients with solid tumors or hematologic malignancies; Phase 2 allows only patients with diffuse large B-Cell lymphoma (DLBCL), follicular lymphoma (FL) or mantle cell lymphoma (MCL). Endpoints include safety, tolerability, pharmacokinetics, serum markers of inflammation, and response using RECIST or Lugano Classification System, […]

[4] = human, plasma, oral, day 15, 20, 40 and 80 mg
[5] = Day 1 to Day 29, 20, 40 and 80 mg

N#CCC1CCN(c2nc(Nc3ccc(N4CCC(O)CC4)cc3)c3c(=O)[nH]ncc3n2)CC1 [Compound 1, 2-(1-(4-((4-(4-hydroxypiperidin-1-yl)phenyl)amino)-5-oxo-5,6-dihydropyrimido[4,5-d]pyridazin-2-yl)piperidin-4-yl)acetonitrile]
% API based on Peak Area % (HCl stress study; 1N HCl, rt, 24 hr): 100.00% | % API based on Peak Area % (HCl stress study; 1N NaOH, rt, 24 hr): 99.54% | % API based on Peak Area % (HCl stress study; 3% H2O2, rt, 30 hr): 83.00% | % API based on Peak Area % (HCl stress study; 80° C., 24 hr): 99.93% | % API based on Peak Area % (HCl stress study; UV, 23 hr): 99.80% | Dose dependence of exposure (Cmax, AUC), in words ([1]; 20, 40 and 80 mg once daily): dose-dependent Cmax and AUC; also recorded: dose-dependent exposure | Inter- and intra-individual variability of PK, in words ([1]; 20, 40 and 80 mg once daily): low inter- and intra-individual variability; also recorded: minimum individual variability and accumulation | Tmax [1, 4]: 2 to 4 h | half-life [1, 4]: 10 to 14 h | EASI50 ([2]; 20 mg cohort): 29% | EASI75 ([2]; 20 mg cohort): 0% | average decrease in EASI ([2]; 20 mg cohort): 21% | average decrease in Pruritis (Itch) Numeric Rating Scale (NRS) ([2]; 20 mg cohort): 15% | EASI50 ([2]; 40 mg cohort): 100% | EASI75 ([2]; 40 mg cohort): 63% | average decrease in EASI ([2]; 40 mg cohort): 79% | average decrease in Pruritis (Itch) Numeric Rating Scale (NRS) ([2]; 40 mg cohort): 47% | reduction in itch ([2]; 80 mg cohort, Day 2): ~45% | EASI50 ([2]; 80 mg cohort): 88% | EASI75 ([2]; 80 mg cohort): 50% | average decrease in EASI ([2]; 80 mg cohort): 70% | average decrease in Pruritis (Itch) Numeric Rating Scale (NRS) ([2]; 80 mg cohort): 71% | overall efficacy in moderate to severe AD (in words) ([2]; 4 weeks): clear efficacy; also recorded: robust activity in EASI after 4 weeks | change in pruritus / patient reported itch (in words) ([2]; 20, 40 and 80 mg once daily): early decrease in pruritis; also recorded: significant reduction in patient reported itch was observed as early as 2nd day of treatment; also recorded: early improvements in pruritus | IGA assessments, subjects reaching 0-1 ([2]; 40 and 80 mg cohorts): up to 38% | subjects reached EASI90 [2, 5]: 3 subjects | subjects with 100% clearance [2, 5]: 2 subjects | systemic exposure (in words) ([3]; 80 mg QD): High systemic exposure | half-life ([3]; human, in vivo, steady-state, 40 mg BID, oral): 18 h | AUC(0-t) ([3]; human, in vivo, steady-state, 40 mg BID, oral, read-out: AUC (0-12 h)): 6.3 µM·h | Cmax ([3]; steady-state, 40 mg BID, oral): 700 nM
